Patent US20220153751A1, “BIFUNCTIONAL COMPOUNDS” (BioTheryX, Inc., priority 2018, published 2022)

Tests used:
Assay type in all cases: cell-based
[1] = system: MOLM-13 cells; experiment: MOLM-13 cell viability assay (CellTiter-Glo); settings: Homo sapiens, MOLM-13, 72 h, 3 days, read-out: MOLM-13 Cell Viability % DMSO at 1 μM
Protocol: MOLM-13 cells were cultured in RPMI 1640 media supplemented with 10% fetal bovine serum, streptomycin and penicillin, and were plated in walled 96-well plates at 2500 cells/well. Cells were incubated in DMSO (control) or the indicated compound for 3 days at 37° C. and 5% CO2. Following the incubation period, 100 μL of CellTiterGlow (CTG) reagent (CellTiter-Glo® Luminescent Cell Viability Assay, Promega (Madison, Wis.)) was added to each well. Following a 10 minutes incubation with shaking, luminescence was measured using the EnVision Multimode plate reader.
The MOLM-13 cell viability values as % DMSO are reported as “A”, “B”, “C”, or “D”. “A” represents a % viability value of less than 50% (value <50%). “B” represents a % viability value of equal to or more than 50% and less than 70% (50%≤value<70%). “C” represents a % viability value of equal to or more than 70% and less than 90% (70%≤value<90%). “D” represents a % viability value of equal or more than 90% (value ≥90%).

[2] = target: T1, IKAROS (Homo sapiens, UniProt Q13422+Q96SW2); experiment: IKAROS degradation assay (Western blot, MV-4-11 cells); settings: MV4-11, 6-8 h
T1 construct: endogenous in cells; host or cells: MV-4-11
T1 sequence (Q13422 whole entry): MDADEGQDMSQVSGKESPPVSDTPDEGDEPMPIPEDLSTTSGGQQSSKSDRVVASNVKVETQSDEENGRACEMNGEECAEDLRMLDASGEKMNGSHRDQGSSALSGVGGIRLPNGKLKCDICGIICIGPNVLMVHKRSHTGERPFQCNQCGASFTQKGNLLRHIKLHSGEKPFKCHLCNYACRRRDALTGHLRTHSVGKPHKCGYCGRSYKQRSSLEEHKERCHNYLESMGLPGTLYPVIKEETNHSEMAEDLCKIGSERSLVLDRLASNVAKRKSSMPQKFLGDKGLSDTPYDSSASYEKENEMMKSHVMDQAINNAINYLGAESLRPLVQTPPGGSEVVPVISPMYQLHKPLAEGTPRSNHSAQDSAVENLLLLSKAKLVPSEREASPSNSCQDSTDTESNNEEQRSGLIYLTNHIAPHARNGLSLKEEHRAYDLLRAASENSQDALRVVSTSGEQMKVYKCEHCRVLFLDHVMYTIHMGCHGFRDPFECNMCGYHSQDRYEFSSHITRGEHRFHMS
T1 sequence (Q96SW2 whole entry): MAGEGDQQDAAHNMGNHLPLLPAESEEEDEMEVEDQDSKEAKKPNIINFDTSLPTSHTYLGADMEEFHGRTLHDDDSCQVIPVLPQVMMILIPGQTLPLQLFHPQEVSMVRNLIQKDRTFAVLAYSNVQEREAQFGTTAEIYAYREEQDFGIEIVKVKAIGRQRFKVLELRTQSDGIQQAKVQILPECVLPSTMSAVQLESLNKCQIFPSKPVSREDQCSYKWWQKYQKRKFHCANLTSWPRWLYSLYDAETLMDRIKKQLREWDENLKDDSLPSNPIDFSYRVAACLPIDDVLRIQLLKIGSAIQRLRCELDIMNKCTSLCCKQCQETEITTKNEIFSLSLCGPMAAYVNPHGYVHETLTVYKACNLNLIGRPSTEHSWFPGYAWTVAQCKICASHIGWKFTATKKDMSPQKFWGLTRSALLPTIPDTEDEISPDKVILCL
T1 sequence (Q16531 whole entry partner): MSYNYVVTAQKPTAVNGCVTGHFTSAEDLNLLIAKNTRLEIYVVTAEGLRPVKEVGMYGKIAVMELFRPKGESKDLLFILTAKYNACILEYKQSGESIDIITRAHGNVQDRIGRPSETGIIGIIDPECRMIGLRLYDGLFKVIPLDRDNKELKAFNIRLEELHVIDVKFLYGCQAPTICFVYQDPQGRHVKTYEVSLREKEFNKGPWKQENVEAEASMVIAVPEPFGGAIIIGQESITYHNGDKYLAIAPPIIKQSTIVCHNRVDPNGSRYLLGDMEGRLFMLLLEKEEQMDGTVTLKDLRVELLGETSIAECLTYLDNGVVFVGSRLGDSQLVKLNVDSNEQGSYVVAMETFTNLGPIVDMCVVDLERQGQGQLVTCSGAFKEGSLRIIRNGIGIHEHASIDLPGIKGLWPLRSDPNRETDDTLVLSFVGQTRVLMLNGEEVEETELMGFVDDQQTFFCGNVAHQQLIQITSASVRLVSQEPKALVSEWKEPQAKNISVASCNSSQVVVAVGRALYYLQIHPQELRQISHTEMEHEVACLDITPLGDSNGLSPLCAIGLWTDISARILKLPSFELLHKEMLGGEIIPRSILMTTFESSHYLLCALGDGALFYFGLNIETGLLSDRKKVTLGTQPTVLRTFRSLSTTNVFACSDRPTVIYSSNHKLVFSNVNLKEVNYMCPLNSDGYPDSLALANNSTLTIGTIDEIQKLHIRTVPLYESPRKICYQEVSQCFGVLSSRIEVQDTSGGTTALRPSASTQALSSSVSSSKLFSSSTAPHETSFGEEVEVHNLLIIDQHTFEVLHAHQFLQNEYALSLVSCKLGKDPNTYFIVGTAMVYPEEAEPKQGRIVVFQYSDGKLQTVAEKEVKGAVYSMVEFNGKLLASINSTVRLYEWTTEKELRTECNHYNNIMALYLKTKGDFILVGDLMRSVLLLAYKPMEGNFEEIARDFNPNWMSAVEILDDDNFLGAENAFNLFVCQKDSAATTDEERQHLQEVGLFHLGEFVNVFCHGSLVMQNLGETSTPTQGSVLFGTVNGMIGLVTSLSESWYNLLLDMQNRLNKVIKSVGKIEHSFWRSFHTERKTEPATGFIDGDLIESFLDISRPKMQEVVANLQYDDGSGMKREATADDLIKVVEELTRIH
Protocol: (§1) MV-4-11 cells were grown in RPMI 1640 media supplemented with 10% fetal bovine serum, streptomycin and penicillin.
(§2) Cells were cultured at approximately 10^6 cells per mL and incubated in DMSO or the indicated compound for 6-8 h. Whole cell extracts were prepared using RIPA buffer according to manufacturer's protocol (Pierce). Briefly, 3×10^6 cells were washed once in PBS, the cell pellets were resuspended in RIPA buffer and allowed to incubate for 15 minutes on ice. Cells debris was removed by centrifugation and the cleared whole cell lysates were transferred to new tubes for further analysis.
(§3) For Western blot analysis, whole cell protein extracts were separated on 4-12% SDS-polyacrylamide gels, transferred to nitrocellulose and probed with the indicated primary antibodies. Membranes were subsequently washed and probed with the appropriate IRDye secondary antibodies (LI-COR). The signal was detected using the Odyssey Imaging System (LI-COR).
(§4) The following antibodies were used in these studies: Anti-eRF3/GSPT1: Abcam, ab126090 (Cambridge, Mass.); Anti-Ikaros: Abcam, ab191394 (Cambridge, Mass.); Anti-CK1α: Abcam, ab108296 (Cambridge, Mass.); Anti-CDK9: Santa Cruz Biotechnology, sc13130 (Dallas, Tex.); Anti-CDK16: Millipore Sigma, HPA001366 (St. Louis, Mo.); 3-actin (8H10comD10) mouse monoclonal antibody: Cell Signaling Technology, #3700 (Danvers, Mass.); IRDye 680RD Goat anti-rabbit antibody: LI-COR, 926-68071 (Lincoln, Nebr.); IRDye 800CW Goat anti-mouse antibody: LI-COR, 926-32210 (Lincoln, Nebr.).
(§5) CDK9 activities are shown in Table 4 at two different concentrations. CDK16 activities are shown in Table 5 at two different concentrations. In each of Tables 1-5, the % degradation values are reported as “A”, “B”, “C”, or “D”. “A” represents a % degradation value of less than 25% (value <25%). “B” represents a % degradation value of equal to or more than 25% and less than 50% (25%≤value<50%). “C” represents a % degradation value of equal to or more than 50% and less than 75% (50%≤value<75%). “D” represents a % degradation value of equal to or more than 75% (value ≥75%).

[3] = target: T2, CDK9 (Homo sapiens, UniProt P50750); experiment: CDK9 degradation assay (Western blot, MV-4-11 cells); settings: 6-8 h; for Dmax at 0.1 µM: MV4-11, 0.1 μM; for Dmax at 1 µM: MV4-11, 1 μM
T2 construct: Whole cell extracts were prepared using RIPA buffer; endogenous in cells; host or cells: MV-4-11
T2 sequence (P50750 whole entry): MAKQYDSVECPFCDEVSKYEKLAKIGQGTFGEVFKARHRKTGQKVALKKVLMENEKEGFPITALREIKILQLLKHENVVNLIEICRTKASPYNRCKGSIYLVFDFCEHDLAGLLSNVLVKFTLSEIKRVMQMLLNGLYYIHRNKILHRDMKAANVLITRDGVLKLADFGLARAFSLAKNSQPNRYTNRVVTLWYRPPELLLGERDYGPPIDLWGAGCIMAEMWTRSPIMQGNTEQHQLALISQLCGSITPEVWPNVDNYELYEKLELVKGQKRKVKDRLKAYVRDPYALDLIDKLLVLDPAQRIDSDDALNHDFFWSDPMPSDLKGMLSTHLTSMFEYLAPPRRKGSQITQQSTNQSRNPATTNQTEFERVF
Protocol: as §1, §2, §3, §4, §5

[4] = target: T3, GSPT1 (Homo sapiens, UniProt P15170+Q96SW2); experiment: GSPT1 degradation assay (Western blot, MV-4-11 cells); settings: MV4-11, 6-8 h
T3 construct: Whole cell extracts were prepared using RIPA buffer; endogenous in cells; host or cells: MV-4-11
T3 sequence (P15170 whole entry): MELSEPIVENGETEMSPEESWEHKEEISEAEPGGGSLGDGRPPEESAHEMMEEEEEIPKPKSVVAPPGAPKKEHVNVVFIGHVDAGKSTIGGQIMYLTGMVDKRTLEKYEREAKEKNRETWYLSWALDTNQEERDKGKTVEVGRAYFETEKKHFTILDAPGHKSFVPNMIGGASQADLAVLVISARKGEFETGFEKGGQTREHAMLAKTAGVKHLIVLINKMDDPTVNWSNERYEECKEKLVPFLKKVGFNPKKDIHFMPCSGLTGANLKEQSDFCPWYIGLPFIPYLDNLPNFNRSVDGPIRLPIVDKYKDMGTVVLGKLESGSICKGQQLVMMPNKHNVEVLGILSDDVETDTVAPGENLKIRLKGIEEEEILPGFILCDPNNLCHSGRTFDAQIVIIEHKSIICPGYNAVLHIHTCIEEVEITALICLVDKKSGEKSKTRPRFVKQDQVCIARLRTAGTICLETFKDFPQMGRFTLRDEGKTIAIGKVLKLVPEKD
T3 sequence (Q96SW2 whole entry): as the sequence (Q96SW2 whole entry) above
T3 sequence (Q16531 whole entry partner): as the sequence (Q16531 whole entry partner) above
Protocol: as §1, §2, §3, §4, §5

[5] = target: T4, CDK16 (Homo sapiens, UniProt Q00536); experiment: CDK16 degradation assay (Western blot, MV-4-11 cells); settings: 6-8 h; for Dmax at 0.1 µM: MV4-11, 0.1 μM; for Dmax at 1 µM: MV4-11, 1 μM
T4 construct: Whole cell extracts were prepared using RIPA buffer; endogenous in cells; host or cells: MV-4-11
T4 sequence (Q00536 whole entry): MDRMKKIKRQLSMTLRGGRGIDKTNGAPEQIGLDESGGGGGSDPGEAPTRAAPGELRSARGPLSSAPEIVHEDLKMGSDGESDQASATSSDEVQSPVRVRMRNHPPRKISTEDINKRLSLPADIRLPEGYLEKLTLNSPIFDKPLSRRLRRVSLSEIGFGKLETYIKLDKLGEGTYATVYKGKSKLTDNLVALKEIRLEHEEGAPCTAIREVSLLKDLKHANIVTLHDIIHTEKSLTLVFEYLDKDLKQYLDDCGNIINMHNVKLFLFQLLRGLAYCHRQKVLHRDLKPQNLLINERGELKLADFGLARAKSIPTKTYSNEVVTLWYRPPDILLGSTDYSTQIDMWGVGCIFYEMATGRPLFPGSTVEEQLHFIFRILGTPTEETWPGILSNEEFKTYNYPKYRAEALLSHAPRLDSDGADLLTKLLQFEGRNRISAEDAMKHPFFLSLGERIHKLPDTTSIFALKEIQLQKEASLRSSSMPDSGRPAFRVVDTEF
Protocol: as §1, §2, §3, §4, §5

[6] = system: TNF-α; experiment: TNF-α inhibition assay, LPS-induced PBMCs / CD14+ monocytes (Meso Scale); settings: 1 h pretreatment, 100 ng/mL LPS 18-24 h
Protocol: (§6) Either frozen primary blood mononuclear cells (PBMCs) or frozen CD14+ mobilized peripheral blood monocytes were purchased from AllCells (PB003F, Normal Peripheral Blood MNC (Alameda, Calif.)). Cells were quick thawed, washed 1-time with RPMI-1640 (10% FBS/1% Pen-Strep) and plated in 96 well plates at 200,000 cells per well. Cells were pretreated with DMSO only or with the indicated compound for 1 h and then induced with 100 ng/mL lipopolysaccharide (LPS) for 18-24 h. The supernatant was analyzed for IL-1β, IL-6, and TNFα, using Meso Scale assay according to manufacturer's protocol. The negative control wells were treated with DMSO.
(§7) In Table 6, the % inhibition values are reported as “A”, “B”, “C”, or “D”. “A” represents a % inhibition value of less than 50% (value <50%). “B” represents a % inhibition value of equal to or more than 50% and less than 70% (50%≤value<70%). “C” represents a % inhibition value of equal to or more than 70% and less than 90% (70%≤value<90%). “D” represents a % inhibition value of equal or more than 90% (value ≥90%). In Table 7, the fold-change values are reported as “A”, “B”, “C”, or “D”. “A” represents a fold-change value of equal to or less than 0.1 (value ≤0.1). “B” represents a fold-change value of more than 0.1 and equal to or less than 0.5 (0.1<value≤0.5). “C” represents a fold-change value of more than 0.5 and equal to or less than 1 (0.5<value≤1). “D” represents a fold-change value of more than 1 (value >1).

[7] = system: IL-6; experiment: IL-6 inhibition assay, LPS-induced PBMCs / CD14+ monocytes (Meso Scale); settings: 1 h pretreatment, 100 ng/mL LPS 18-24 h
Protocol: as §6, §7

[8] = system: IL-1β; experiment: IL-1β inhibition assay, LPS-induced PBMCs / CD14+ monocytes (Meso Scale); settings: 1 h pretreatment, 100 ng/mL LPS 18-24 h
Protocol: as §6, §7

Row | SMILES | Dmax at 1 µM [2] | Dmax at 0.1 µM [3] | Dmax at 1 µM [3] | Dmax at 1 µM [4] | Dmax at 0.1 µM [5] | Dmax at 1 µM [5] | viability at 1 µM [1] | inhibition at 1 µM [6] | inhibition at 1 µM [7] | inhibition at 1 µM [8]
1 | CC(C)(C)c1cnc(CSc2cnc(NC(=O)C3CCN(CC(=O)NCCCCNCC(=O)NCc4cc5c(s4)C(=O)N(C4CCC(=O)NC4=O)C5)CC3)s2)o1 (centres unmarked) [Compound 14, N-(5-(((5-(tert-butyl)oxazol-2-yl)methyl)thio)thiazol-2-yl)-1-(2-((4-((2-(((5-(2,6-dioxopiperidin-3-yl)-6-oxo-5,6-dihydro-4H-thieno[2,3-c]pyrrol-2-yl)methyl)amino)-2-oxoethyl)amino)butyl)amino)-2-oxoethyl)piperidine-4-carboxamide] | < 25% | 25 to 50% | ≥ 75% | 25 to 50% | < 25% | 25 to 50% | > 90% | – | – | –
2 | Cn1ncc(-c2nc(N[C@H]3CC[C@H](NCC(=O)NCCCCNCC(=O)NCc4cc5c(s4)C(=O)N(C4CCC(=O)NC4=O)C5)CC3)ncc2F)c1CC1CC1 (some centres unmarked) [Compound 29, 2-(((1r,4r)-4-((4-(5-(cyclopropylmethyl)-1-methyl-1H-pyrazol-4-yl)-5-fluoropyrimidin-2-yl)amino)cyclohexyl)amino)-N-(4-((2-(((5-(2,6-dioxopiperidin-3-yl)-6-oxo-5,6-dihydro-4H-thieno[2,3-c]pyrrol-2-yl)methyl)amino)-2-oxoethyl)amino)butyl)acetamide] | 50 to 75% | 25 to 50% | 50 to 75% | < 25% | 25 to 50% | 50 to 75% | > 90% | – | – | –
3 | Cn1ncc(-c2nc(N[C@H]3CC[C@H](NCC(=O)NCCCCCNCC(=O)NCc4scc5c4CN(C4CCC(=O)NC4=O)C5=O)CC3)ncc2F)c1CC1CC1 (some centres unmarked) [Compound 32, 2-(((1r,4r)-4-((4-(5-(cyclopropylmethyl)-1-methyl-1H-pyrazol-4-yl)-5-fluoropyrimidin-2-yl)amino)cyclohexyl)amino)-N-(5-((2-(((5-(2,6-dioxopiperidin-3-yl)-4-oxo-5,6-dihydro-4H-thieno[3,4-c]pyrrol-1-yl)methyl)amino)-2-oxoethyl)amino)pentyl)acetamide] | 50 to 75% | 50 to 75% | ≥ 75% | 25 to 50% | 50 to 75% | ≥ 75% | > 90% | – | – | –
4 | Cn1ncc(-c2nc(N[C@H]3CC[C@H](NCC(=O)NCCCCNCC(=O)NCc4scc5c4CN(C4CCC(=O)NC4=O)C5=O)CC3)ncc2Cl)c1CC1CC1 (some centres unmarked) [Compound 38, 2-(((1r,4r)-4-((5-chloro-4-(5-(cyclopropylmethyl)-1-methyl-1H-pyrazol-4-yl)pyrimidin-2-yl)amino)cyclohexyl)amino)-N-(4-((2-(((5-(2,6-dioxopiperidin-3-yl)-4-oxo-5,6-dihydro-4H-thieno[3,4-c]pyrrol-1-yl)methyl)amino)-2-oxoethyl)amino)butyl)acetamide] | 25 to 50% | 50 to 75% | ≥ 75% | 50 to 75% | 50 to 75% | ≥ 75% | > 90% | – | – | –
5 | Cn1ncc(-c2nc(N[C@H]3CC[C@H](NCCCCCCCNCc4ccc(OCc5scc6c5CN([C@H]5CCC(=O)NC5=O)C6=O)cc4)CC3)ncc2Cl)c1CC1CC1 [Compound 68, (S)-3-(1-((4-(((7-(((1r,4r)-4-((5-chloro-4-(5-(cyclopropylmethyl)-1-methyl-1H-pyrazol-4-yl)pyrimidin-2-yl)amino)cyclohexyl)amino)heptyl)amino)methyl)phenoxy)methyl)-4-oxo-4H-thieno[3,4-c]pyrrol-5(6H)-yl)piperidine-2,6-dione] | ≥ 75% | – | – | ≥ 75% | – | – | > 90% | – | – | –

Further lines, with some results ahead:

Row | Dmax at 1 µM [2] | Dmax at 0.1 µM [3] | Dmax at 1 µM [3] | Dmax at 1 µM [4] | Dmax at 0.1 µM [5] | Dmax at 1 µM [5] | SMILES | viability at 1 µM [1] | inhibition at 1 µM [6] | inhibition at 1 µM [7] | inhibition at 1 µM [8]
6 | – | – | – | 50 to 75% | – | – | Cn1ncc(-c2nc(N[C@H]3CC[C@H](NCC(=O)NCCOCCOCCOCCNCC(=O)NCc4cc5c(s4)C(=O)N(C4CCC(=O)NC4=O)C5)CC3)ncc2Cl)c1CC1CC1 (some centres unmarked) [Compound 43, 14-(2-(((1r,4r)-4-((5-chloro-4-(5-(cyclopropylmethyl)-1-methyl-1H-pyrazol-4-yl)pyrimidin-2-yl)amino)cyclohexyl)amino)acetamido)-N-((5-(2,6-dioxopiperidin-3-yl)-6-oxo-5,6-dihydro-4H-thieno[2,3-c]pyrrol-2-yl)methyl)-6,9,12-trioxa-3-azatetradecanamide] | 50 to 70% | < 50% | < 50% | < 50%
7 | 50 to 75% | – | – | < 25% | – | – | Cn1ncc(-c2nc(N[C@H]3CC[C@H](NCC(=O)NCCOCCOCCOCCNc4cccc5c4C(=O)N(C4CCC(=O)NC4=O)C5=O)CC3)ncc2Cl)c1CC1CC1 (some centres unmarked) [Compound 49, 2-(((1r,4r)-4-((5-chloro-4-(5-(cyclopropylmethyl)-1-methyl-1H-pyrazol-4-yl)pyrimidin-2-yl)amino)cyclohexyl)amino)-N-(2-(2-(2-(2-((2-(2,6-dioxopiperidin-3-yl)-1,3-dioxoisoindolin-4-yl)amino)ethoxy)ethoxy)ethoxy)ethyl)acetamide] | > 90% | – | – | –
8 | – | – | – | 50 to 75% | – | – | Cn1ncc(-c2nc(N[C@H]3CC[C@H](NCCOCCOCCOCCNCc4cc5c(s4)C(=O)N(C4CCC(=O)NC4=O)C5)CC3)ncc2Cl)c1CC1CC1 (some centres unmarked) [Compound 66, 3-(2-(13-(((1r,4r)-4-((5-chloro-4-(5-(cyclopropylmethyl)-1-methyl-1H-pyrazol-4-yl)pyrimidin-2-yl)amino)cyclohexyl)amino)-5,8,11-trioxa-2-azatridecyl)-6-oxo-4,6-dihydro-5H-thieno[2,3-c]pyrrol-5-yl)piperidine-2,6-dione] | 50 to 70% | < 50% | < 50% | < 50%
